In patent publication US20190209569A1, “PHARMACEUTICAL COMPOSITION FOR SUPPRESSING APPETITE, CONTAINING N2-(M-TRIFLUOROBENZYL), N6-(P-NITROBENZYL)PURINE (TNP) OR PHARMACEUTICALLY ACCEPTABLE SALT THEREOF AS ACTIVE INGREDIENT” (priority 2016, published 2019):

What was measured:
[1] = test system: food intake; test: Effect of single administration of TNP in the third ventricle on food intake; assay type: in vivo, mouse
Protocol: (§1) Adult male C57BL/6 mice were purchased from Orient Bio (Gyeonggi-do, Korea) and the mice were allowed to take the standard diet (Agri Purina, Seoul, Korea) freely. The mice were raised in the controlled condition (temperature: 22±1° C., light/dark cycle: 12/12 hr (light condition: 8:00 am˜8:00 pm)). A cannula was intubated in the third ventricle of the mouse for the administration of TNP. For the cannulation, the mouse was anesthetized with a mixture of Zoletil and Rumpun (2:1 v/v, 10 μl/g weight) and then a permanent 26-gauge stainless steel cannula was inserted in the third ventricle of the mouse. The insertion position of the cannula was 1.8 mm back from the bregma and 5.0 mm down from the sagittal sinus. The exact cannulation site was confirmed by the positive dipsogenic response after the administration of angiotensin II (50 ng). Only those mice that were confirmed to have cannulae in the correct location were used for data analysis. After the 7 day recovery period, the mice were massaged every day for 1 week in order to minimize the stress response to the experiment.
The mice cannulated in Example 1 were fasted for 18 hours and then administered at different concentrations of TNP (0.4 pg, 0.04 ng, and 0.4 ng; Calbiochem) in the early light phase (9:00 am˜11:00 am). Before the administration, TNP was dissolved in 0.9% saline. 2 μl of the TNP dissolved in saline at different concentrations (0.4 pg, 0.04 ng, and 0.4 ng) was administered via the cannula into the third ventricle. For the control, the same amount of saline was administered.
5 mice treated with saline, 5 mice treated with 0.4 pg of TNP, 5 mice treated with 0.04 ng of TNP, and 4 mice treated with 0.4 ng of TNP were fasted for 18 hours as described in Example 2. TNP was administered once into the third ventricle of the mice. Then, the mice were allowed to take food freely and the food intake was measured for 24 hours.
All experimental values of the present invention were expressed as mean±standard error ([…]). Statistical analysis was performed by Student's t-test. […]

[2] = test system: weight gaining; test: Effect of single administration of TNP in the third ventricle on weight control; assay type: in vivo, mouse; conditions: mice fasted for 18 hours; single administration of 0.4 pg, 0.04 ng or 0.4 ng into the third ventricle; observed for 24 hours; FIG. 2
Protocol: as §1
The mice cannulated in Example 1 were fasted for 18 hours and then administered at different concentrations of TNP (0.4 pg, 0.04 ng, and 0.4 ng; Calbiochem) in the early light phase (9:00 am˜11:00 am). Before the administration, TNP was dissolved in 0.9% saline. […]

[3] = single administration into the third ventricle, 0.4 pg, 0.04 ng, 0.4 ng, vs saline

Structure (SMILES): O=[N+]([O-])c1ccc(CNc2nc(NCc3cccc(C(F)(F)F)c3)nc3[nH]cnc23)cc1 [TNP, N2-(m-Trifluorobenzyl), N6-(p-nitrobenzyl)purine]
- food intake compared to the mice administered with saline ([1]; male C57BL/6 mice fasted for 18 hours, single administration of 0.4 pg, 0.04 ng or 0.4 ng into the third ventricle, food intake measured for 24 hours, FIG. 1): significantly reduced
- time after administration at which the food intake reduction effect was still maintained [1, 3]: ≥ 24 h
- time after administration from which the food intake reduction effect was significant [1, 3]: 2 h
- weight gaining compared to the control mice treated with saline [2]: significantly suppressed
